Experimental findings from ChEMBL document CHEMBL4482306, “Methods for inhibiting fascin” (2014) are described below.

For orientation: IC50 means the point on the concentration scale where inhibition reaches its midpoint.

Calls of active or inactive are those of the source. No cut-off for these calls is given here. Some results are limits rather than exact numbers.

The subject of assay [1] is 4T1. The assay can be described thus: Antimigratory activity against mouse 4T1 cells assessed as inhibition of cell migration incubated for 6 hrs by crystal violet staining based Boyden-Chamber cell migration assay. The settings on record: 4T1, 6 h. Type of assay: functional.
Assay [2] concerns 4T1. The assay can be described thus: Antitumor activity against mouse 4T1 cells implanted in Balb/c mouse mouse assessed as inhibition of breast tumor metastasis at 8 mg/kg dosed daily for 2 weeks starting 7 days post tumor cell implantation and measured on day 28 by 6-thioguanine clonogenic assay. Type of assay: functional, organism-based.
A further assay deals with Fascin (Homo sapiens) (UniProt Q16658). In words: Inhibition of GST-tagged recombinant human fascin 1 expressed in Escherichia coli BL21/DE3 assessed as average fiber thickness at 30 uM pre-incubated for 30 mins before polymerized actin addition and followed by Alexa fluro 488 phalloidin addition and measured after 1 hr under dark condition (reference value: 0.39 a.u).

The test system of assay [3] is 4T1. In words: Antitumor activity against mouse 4T1 cells implanted in Balb/c mouse mouse assessed as inhibition of breast tumor metastasis at 30 mg/kg dosed daily for 2 weeks starting 7 days post tumor cell implantation and measured on day 28 by 6-thioguanine clonogenic assay. Type of assay: functional, organism-based.

`O=C1C(Sc2nc[nH]n2)=C/C(=N/S(=O)(=O)c2ccccc2)c2ccccc21`: in the assay on 4T1 [1], the 50% inhibitory concentration (IC50) is above 30 µM.

As to `O=[N+]([O-])c1ccc(Cl)c(S(=O)(=O)Nc2nc3ccc(Cl)cc3s2)c1`, in the assay on 4T1 [2], the inhibition entry was “Active”. Besides, the Activity on Fascin (Homo sapiens) is 0.35 a.u.

Consider `Cc1ccc(S(=O)(=O)Nc2cc(Sc3nc[nH]n3)c(O)c3ccccc23)c(C)c1`, for which the IC50 with 4T1 [1] was above 30 µM.

As for `COc1ccc(S(=O)(=O)Nc2cc(Sc3nc[nH]n3)c(O)c3ccccc23)cc1`, in the assay on 4T1 [3], the inhibition result is “Active”.

On to `c1ccc(Nc2nc(-c3ccccc3)[n+](-c3ccccc3)s2)cc1`, for which, in the assay with 4T1 [1], the half-maximal inhibitory concentration (IC50) was above 50 µM.

With `CCOc1ccc(S(=O)(=O)Nc2cc(Sc3nc[nH]n3)c(O)c3ccccc23)cc1`, the concentration for half-maximal inhibition (IC50) with 4T1 [1] is above 20 µM.
